Drawing on patent publication US20230250095A1, “BENZIMIDAZOLE DERIVATIVES, PREPARATION METHOD THEREFOR AND MEDICAL USE THEREOF” (TUOJIE BIOTECH(SHANGHAI) CO., LTD., priority 2020, published 2023), this text covers IC50 for seven molecules.

Where only a bound is given, the exact number is not on record here.

One data set deals with T1, CYP1A2 (Homo sapiens, UniProt P05177).
T1 construct: 150-donor pooled human liver microsomes (purchased from Corning, Cat. No. 452117); tissue Corning 452117; host or cells: 150-donor pooled human liver microsomes
T1 sequence (P05177 1-516): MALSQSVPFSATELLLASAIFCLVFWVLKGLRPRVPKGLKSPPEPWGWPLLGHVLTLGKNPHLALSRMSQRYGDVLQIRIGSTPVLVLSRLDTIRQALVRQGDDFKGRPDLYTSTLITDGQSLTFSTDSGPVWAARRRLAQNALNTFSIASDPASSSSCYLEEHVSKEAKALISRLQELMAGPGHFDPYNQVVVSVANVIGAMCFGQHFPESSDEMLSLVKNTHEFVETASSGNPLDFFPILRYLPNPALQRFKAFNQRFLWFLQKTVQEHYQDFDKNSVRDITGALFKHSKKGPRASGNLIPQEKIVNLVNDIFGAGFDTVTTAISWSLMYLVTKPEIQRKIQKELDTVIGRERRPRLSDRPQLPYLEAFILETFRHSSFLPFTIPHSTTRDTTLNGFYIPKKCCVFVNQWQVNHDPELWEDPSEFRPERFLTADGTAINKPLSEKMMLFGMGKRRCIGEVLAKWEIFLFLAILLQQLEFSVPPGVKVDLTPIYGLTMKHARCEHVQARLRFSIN
In words: CYP inhibition assay in pooled human liver microsomes (phenacetin). In kind it is in vitro ADME. As to conditions: human liver microsomes 0.2 mg/mL, substrate phenacetin; read-out: CYP 1A2 (μM) IC50. As to the method:
(§1) The metabolic reactions of representative substrates of 5 major human CYP subtypes (CYP1A2, CYP2C9, CYP2C19, CYP2D6, CYP3A4/5) were evaluated using 150-donor pooled human liver microsomes (purchased from Corning, Cat. No. 452117). The effects of different concentrations of the test compounds on the metabolic reactions of phenacetin (CYP1A2), diclofenac sodium (CYP2C9), S-mephenytoin (CYP2C19), bufuralol hydrochloride (CYP2D6) and midazolam (CYP3A4/5) were determined by liquid chromatography-tandem mass spectrometry (LC/MS/MS).
(§2) 30 μM phenacetin, 10 μM diclofenac sodium, 35 μM S-mephenytoin, 5 μM bufuralol hydrochloride, 3 μM midazolam, 1 mM NADPH, and test compounds (at concentrations of 0.1 μmol/L, 0.3 μmol/L, 1 μmol/L, 3 μmol/L, 10 μmol/L, and 30 μmol/L, respectively) or positive compound or blank were incubated with 200 μL of a reaction system of pooled human liver microsomes (0.2 mg/mL) (100 mmol/L phosphate buffer, pH 7.4, containing 0.3% by volume of DMSO, 0.6% by volume of acetonitrile, and 0.1% by volume of methanol) at 37° C. for 5 min. Then, 200 μL of acetonitrile containing 3% formic acid and 40 nM internal standard verapamil was added, and the mixture was centrifuged at 4000 rpm for 50 min. The mixture was cooled on ice for 20 min and centrifuged at 4000 rpm for 20 min to precipitate the protein. 200 μL of the supernatant was analyzed by LC/MS/MS.
(§3) The peak area was calculated from the chromatogram. The residual activity rate (%) was calculated by the following formula:
(§4) peak area rate=peak area of metabolite/peak area of internal standard
(§5) residual activity rate (%)=peak area proportion of the test compound group/peak area proportion of the blank group
(§6) The half maximal inhibitory concentrations (IC50) against CYP were calculated by Excel XLfit 5.3.1.3.

The subject of another data set is CYP3A4/5. In words: CYP inhibition assay in pooled human liver microsomes (midazolam). In kind it is in vitro ADME. As to conditions: pH 7.4, probe midazolam (3 μM), human liver microsomes 0.2 mg/mL, substrate midazolam, read-out: CYP 3A4/5 (μM) IC50. As to the method: as §1, §2, §3, §4, §5, §6
(In general: Microsomes from liver hold many membrane-bound enzymes, among them those of drug oxidation.)

The next data set has as its target T2, hP2X3 (Homo sapiens, UniProt P56373).
T2 construct: host or cells: 1321N1 cells
T2 sequence (P56373 1-397): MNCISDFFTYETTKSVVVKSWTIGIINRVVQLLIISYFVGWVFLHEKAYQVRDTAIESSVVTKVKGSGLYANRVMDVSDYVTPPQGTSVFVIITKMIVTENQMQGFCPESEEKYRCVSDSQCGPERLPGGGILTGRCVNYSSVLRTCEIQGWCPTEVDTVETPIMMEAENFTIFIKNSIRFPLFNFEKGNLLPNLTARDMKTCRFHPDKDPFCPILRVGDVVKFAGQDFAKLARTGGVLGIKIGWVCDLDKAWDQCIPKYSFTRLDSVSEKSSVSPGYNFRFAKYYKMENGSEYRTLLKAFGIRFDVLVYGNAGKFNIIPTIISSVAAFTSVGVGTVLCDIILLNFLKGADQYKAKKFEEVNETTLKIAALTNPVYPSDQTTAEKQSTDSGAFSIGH
The data set is described as follows: FLIPR calcium flux assay, antagonistic activity against hP2X3 receptor. The class given is cell-based. As to conditions: 1321N1/hP2X3 cells, agonist α,β-meATP 500 nM. As to the method: The compounds were screened for antagonistic activity against hP2X3 and hP2X2/3 receptors (changes in calcium flux signals represent the effect of the compounds on ion channels) by an FLIPR assay.
1321N1 cells (adherent cells) stably transfected with hP2X3 and hP2X2/3 receptors were digested, centrifuged, resuspended in a plating medium (DMEM+10% DFBS) and counted, adjusted to 2×10^5 cells/mL. The cells were seeded in a 384-well assay plate at 50 μL/well, and incubated in an incubator at 37° C. with 5% CO2 for 16-24 h. Test compounds (20 mM DMSO stock solution) that were 180 times the desired concentration were prepared with DMSO, and added to a 384-well compound plate at 500 nL/well. Then, each well was supplemented with 30 μL of FLIPR buffer (lx HBSS containing 1.26 mM Ca^2++2 mM CaCl2)+20 mM HEPES), and the mixture was shaken for 20-40 min to be mixed well. The agonist α,β-meATP (final concentration of 500 nM for hP2X3 cells and final concentration of 1000 nM for hP2X2/3 cells) that was 3 times the desired concentration was prepared with an FLIPR buffer, and added to another 384-well compound plate at 35 μL/well. The cell plate in which cells had been plated and cultured for 16-24 h was taken out, and the cell supernatant was removed by pipetting. 30 μL of dye (FLIPR® calcium 4 assay kit, diluted with an FLIPR buffer) was added to each well, and the plate was incubated for 1 h. 15 μL of the compound was added to each well containing cells (dosing using an FLIPR instrument), and after 15 min, 22.5 μL of agonist was added to each well and the fluorescent signal was detected (excitation wavelength: 470-495 nm, emission wavelength: 515-575 nm). With the difference between the peak and the trough of the signal taken as the basic data, the data of the highest concentration of the positive drug taken as the 100% inhibition rate, and the data of DMSO taken as the 0% inhibition rate, the inhibition effect curves of the compounds were fitted on the software Graphpad Prism 6 and IC50 values were calculated.
(Calcium flux is commonly read through the fluorescence of an indicator in the cells.)

Turning to `CC(=O)N1CCOC(Cn2c(-c3c(F)cc(N4CCCC4=O)cc3F)nc3cc(C)ccc32)C1` (stereo in doubt) [Compound 1], the IC50 was more than 30 µM at CYP1A2 and 0.0368 µM on hP2X3. Also, the IC50 at 5 min in the data set on CYP3A4/5 was more than 30 µM.
For `COC(=O)N1CCOC(Cn2c(-c3c(F)cc(N4CCCC4=O)cc3F)nc3cc(C)ccc32)C1` (stereo not drawn) [Compound 2, Methyl 2-((2-(2,6-difluoro-4-(2-carbonylpyrrolidin-1-yl)phenyl)-5-methyl-1H-benzo[d]imidazol-1-yl)methyl)morpholine-4-carboxylate], the IC50 on CYP1A2 is more than 30 µM; on hP2X3, 0.105 µM. Moreover, the IC50 at 5 min in the data set with CYP3A4/5 was more than 30 µM.
Take `CC(=O)N1CCO[C@@H](Cn2c(-c3ccc(N4CCCC4=O)cc3Cl)nc3cc(C)ccc32)C1` [Compound 3, (S)-1-(4-(1-((4-acetylmorpholin-2-yl)methyl)-5-methyl-1H-benzo[d]imidazol-2-yl)-3-chlorophenyl)pyrrolidin-2-one]: the IC50 on CYP1A2 was more than 30 µM; at hP2X3, 0.0412 µM. Besides, the IC50 at 5 min with CYP3A4/5 was more than 30 µM.
As for `CC(=O)N1CCO[C@@H](Cn2c(-c3c(F)cc(N4CCCC4=O)cc3Cl)nc3cc(C)ccc32)C1` [Compound 4, (S)-1-(4-(1-((4-acetylmorpholin-2-yl)methyl)-5-methyl-1H-benzo[d]imidazol-2-yl)-3-chloro-5-fluorophenyl)pyrrolidin-2-one], the IC50 at CYP1A2 is more than 30 µM; at hP2X3, 0.0316 µM. In addition, the IC50 at 5 min in the data set with CYP3A4/5 is more than 30 µM.
As for `COC(=O)N1CCO[C@@H](Cc2c(-c3c(F)cc(N4CCCC4=O)cc3F)nc3cc(C)ccn23)C1` [Compound 9, Methyl (S)-2-((2-(2,6-difluoro-4-(2-carbonylpyrrolidin-1-yl)phenyl)-7-methylimidazo[1,2-a]pyridin-3-yl)methyl)morpholine-4-carboxylate], the results for the IC50 at CYP1A2 and on hP2X3 were more than 30 µM and 0.0758 µM, respectively. Further, the IC50 at 5 min in the data set with CYP3A4/5 turned out to be 12.9 µM.
Turning to `CC(=O)N1CCO[C@@H](Cn2c(-c3c(F)cc(N4CCCC4=O)cc3F)nc3cc(Cl)ccc32)C1` [Compound 10, (S)-1-(4-(1-((4-acetylmorpholin-2-yl)methyl)-5-chloro-1H-benzo[d]imidazol-2-yl)-3,5-difluorophenyl)pyrrolidin-2-one], the values for the IC50 at CYP1A2 and on hP2X3 were more than 30 µM and 0.0541 µM, respectively. In addition, the IC50 at 5 min with CYP3A4/5 is more than 30 µM.
On to `[2H]C([2H])([2H])c1ccc2c(c1)nc(-c1c(F)cc(N3CCCC3=O)cc1F)n2C[C@H]1CN(C(C)=O)CCO1` [Compound 14, (S)-1-(4-(1-((4-acetylmorpholin-2-yl)methyl)-5-(methyl-d3)-1H-benzo[d]imidazol-2-yl)-3,5-difluorophenyl)pyrrolidin-2-one], for which the IC50 was more than 30 µM on CYP1A2 and 0.033 µM on hP2X3. In addition, in the data set on CYP3A4/5, the IC50 at 5 min is more than 30 µM.
